{
  "source": "paper PMC7082753",
  "about": "“Hazards of Using Masking Protocols When Performing Ligand Binding Assays: Lessons From the Sigma-1 and Sigma-2 Receptors” (Frontiers in Pharmacology, 2020)",
  "key": {"[1]": {"target": "sigma-1 receptor", "design": "method as in Largent et al., 1987", "settings": "ref Largent et al., 1987, cited from earlier work"}, "[2]": {"target": "sigma-2 receptor", "settings": "PC12 cells, ref Hellewell and Bowen, 1990, cited from earlier work"}, "[3]": {"tested_on": "sigma-1 receptor", "assay": "Saturation binding of [³H] (+) pentazocine to MCF7 cell membranes", "design": "species or system human", "procedure": "MDA-MB-468 cells were maintained in DMEM, high glucose (41965-062) supplemented with 10% foetal calf serum. MCF7 cells were maintained in MEM (M2279) supplemented with 2 mM L-glutamine and 10% foetal calf serum. Cells were cultured at 37°C in a humidified incubator with 5% CO2. […] The supernatant was discarded and the pellet suspended in SBB.\nAssays (total volume 100 µl) were performed using 0–300 nM [^3H] […] Non-specific binding was determined using 1 mM reduced haloperidol ([Schetz et al., 2007]). […] Assays were terminated by addition of ice-cold tris-buffered saline (TBS: 154 mM NaCl, 10 mM Tris, pH 7.4) and filtration through glass fibre filters (GF/B, Sigma-Aldrich, Poole, UK) using a cell harvester. Tubes and filter discs were washed (2 x 3 ml) with ice-cold TBS, and the filter discs dried under vacuum. Scintillation counting was carried out in ProSafe FC+ cocktail (Meridian Biotechnologies Ltd, Tadworth, UK) after overnight incubation."}, "[4]": {"target": "T1, sigma-1 receptor (Homo sapiens, UniProt Q99720)", "T1 construct": "sigma-1 receptors in membranes prepared from MDA-MB-468 cells; endogenous in cells; host or cells: MDA-MB-468 (ATCC HTB-132) cell membranes", "T1 sequence (Q99720 whole entry)": "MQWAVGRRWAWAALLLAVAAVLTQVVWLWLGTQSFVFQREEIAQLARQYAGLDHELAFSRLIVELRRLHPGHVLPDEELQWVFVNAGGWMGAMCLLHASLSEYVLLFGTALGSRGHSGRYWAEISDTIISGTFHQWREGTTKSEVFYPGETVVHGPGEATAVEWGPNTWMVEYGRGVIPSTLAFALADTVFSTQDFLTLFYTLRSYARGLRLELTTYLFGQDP", "format": "binding", "settings": "MDA-MB-468; two-site analysis", "protocol": "(§1) Competition binding assays (total volume 100 μl) were performed using a final assay concentration of 50 nM, 100 nM, or 1 µM [^3H] […] Alternatively, 10–30 nM [³H] […] The assay was then allowed to equilibrate at room temperature for 4 h. […] Tubes and filter discs were washed with ice-cold TBS (2 x 3 ml), and the filter discs dried under vacuum."}, "[5]": {"tested_on": "sigma-1 receptor", "settings": "not affected by GTP or suramin; ref Brimson et al., 2011; cited from earlier work"}, "[6]": {"tested_on": "sigma sites", "settings": "spinal cord; competition experiments; ref Kovacs and Larson, 1995; cited from earlier work"}, "[7]": {"target": "T2, sigma-2 receptor (Homo sapiens, UniProt Q5BJF2)", "T2 sequence (Q5BJF2 whole entry)": "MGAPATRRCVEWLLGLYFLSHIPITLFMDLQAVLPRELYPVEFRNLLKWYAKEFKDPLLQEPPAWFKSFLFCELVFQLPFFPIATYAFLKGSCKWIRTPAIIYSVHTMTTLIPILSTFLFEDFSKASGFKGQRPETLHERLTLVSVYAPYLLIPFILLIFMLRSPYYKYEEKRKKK", "assay": "Two-site competition of (+) pentazocine with [³H] DTG in MDA-MB-468 membranes, low-affinity site", "format": "binding", "design": "endogenous in cells", "settings": "two-site analysis", "protocol": "as §1"}, "[8]": {"target": "T2, sigma-2 receptor", "assay": "[³H] DTG saturation binding to MCF7 membranes in absence or presence of (+) pentazocine", "design": "from sigma-2 receptors in membranes prepared from MCF7 cells; endogenous in cells; host or cells: MCF7 (ATCC HTB-22) cell membranes", "protocol": "(§2) Assays (total volume 100 μl) were performed at room temperature for 4 h with 1–300 nM [^3H] […] Assays were terminated by addition of ice-cold TBS and filtration through glass fibre filters (GF/C, Sigma-Aldrich, Poole, UK) using a cell harvester. Tubes and filter discs were washed with ice-cold TBS (2 x 3 ml) and the filter discs dried under vacuum. Scintillation counting was carried out in ProSafe FC+ cocktail after overnight incubation."}, "[9]": {"tested_on": "sigma receptors", "assay": "Saturation binding of pan-sigma ligand [³H] DTG to MDA-MB-468 cell membranes", "design": "species or system human", "settings": "MDA-MB-468 membranes; n = 3", "protocol": "as §2"}, "[10]": {"tested_on": "residual binding sites for [³H] DTG in TMEM97 knock-out HeLa cells", "settings": "cited from earlier work"}, "[11]": {"target": "sigma-2 receptor", "design": "method as in Hou et al., 2006; Zeng et al., 2019", "settings": "ref Hou et al., 2006; Zeng et al., 2019; cited from earlier work"}, "[12]": {"target": "sigma-1 receptor", "design": "method as in Hou et al., 2006; Zeng et al., 2019", "settings": "ref Hou et al., 2006; Zeng et al., 2019; cited from earlier work"}, "[13]": {"target": "sigma-1 receptor", "assay": "Literature dextrallorphan competition against [³H] PPP (Largent et al.)", "format": "binding", "settings": "data of ref Largent et al., 1987"}, "[14]": {"tested_on": "sigma-2 receptor", "assay": "Literature [³H] DTG and [³H] PPP binding in PC12 cells and affinity estimated from it", "design": "species or system rat", "settings": "for K30: 30 % displacement; for Ki: data of ref Hellewell and Bowen, 1990", "text": "Calculations for saturation binding are based on non-linear analysis of idealised data."}, "[15]": {"target": "sigma-1 receptor", "settings": "ref Hellewell and Bowen, 1990; read-out: Ki (sigma-1 affinity); cited from earlier work"}},
  "note": "Where two headings read alike, the source gives them in different places.",
  "data": [
    {"compound": "CCCN1CCCC(c2cccc(O)c2)C1", "note": "(single isomer, unassigned; (+)) [PPP, (+)-3-(3-hydroxyphenyl)-N-(1-propyl)piperidine]", "values": [
      {"measurement": "Kd", "setting": "[1]; radioligand [³H] PPP", "result": 30, "unit": "nM"},
      {"measurement": "Kd", "setting": "[2]; PPP", "result": 86.3, "unit": "nM"}
    ]},
    {"compound": "CC(C)=CCN1CC[C@]2(C)c3cc(O)ccc3C[C@H]1[C@H]2C", "note": "[(+) pentazocine, (1S,9S,13S)-1,13-dimethyl-10-(3-methylbut-2-en-1-yl)-10-azatricyclotrideca-2,4,6-trien-4-ol]", "values": [
      {"measurement": "specific binding", "setting": "[3]", "result": "no specific binding"},
      {"measurement": "% of sites with high affinity", "setting": "[4]", "result": 36, "unit": "%"},
      {"measurement": "Hill slope", "setting": "[5]", "result": "unity"},
      {"measurement": "[³H] DTG displaced with high affinity", "setting": "[6]", "result": 30, "unit": "%"},
      {"measurement": "displacement of DTG and PPP binding", "setting": "[2]", "result": "low-affinity"},
      {"measurement": "% of sites with low affinity", "setting": "[7]", "result": 64, "unit": "%"},
      {"measurement": "effect on Bmax of [³H] DTG", "setting": "[8]; 100 nM (+) pentazocine", "result": "did not affect"},
      {"measurement": "effect on calculated Bmax of [³H] DTG", "setting": "[8]; 1 µM (+) pentazocine", "result": "did not affect"}
    ]},
    {"compound": "Cc1ccccc1NC(=N)Nc1ccccc1C", "note": "[DTG, 1,3-di-O-tolylguanidine]", "values": [
      {"measurement": "pKd", "setting": "[9]", "result": "7.88 ± 0.01"},
      {"measurement": "Kd", "setting": "[10]; presence of 1 μM (+) pentazocine, ref Riad et al., 2018, Zeng et al., 2019, read-out: apparent Kd", "result": "300 to 400", "unit": "nM"}
    ]},
    {"compound": "COc1cc2c(cc1OC)CN(CCCCNC(=O)c1cc(I)cc(OC)c1OC)CC2", "note": "[RHM-4]", "values": [
      {"measurement": "detection of residual binding when used as radioligand", "setting": "[10]; ref Zeng et al., 2019", "result": "unable to detect this residual binding"},
      {"measurement": "Ki", "setting": "[11]", "result": 8.2, "unit": "nM"},
      {"measurement": "Ki", "setting": "[12]", "result": 12900, "unit": "nM"}
    ]},
    {"compound": "C=CCN1CC[C@@]23CCCC[C@@H]2[C@@H]1Cc1ccc(O)cc13", "note": "[dextrallorphan]", "values": [
      {"measurement": "Ki", "setting": "[13]; Cheng-Prusoff correction of IC50 163 nM, read-out: Ki", "result": "153 to 158", "unit": "nM"},
      {"measurement": "Ki", "setting": "[13]; lowest calculated affinity, from Ki 153-158 nM, read-out: sigma-1 affinity used for modelling", "result": 155, "unit": "nM"},
      {"measurement": "K30", "setting": "[14]; calculated using DTG (5 nM, Kd […])", "result": 18.76, "unit": "µM"},
      {"measurement": "K30", "setting": "[14]; calculated using PPP (3 nM, Kd 86.3 nM)", "result": 6.55, "unit": "µM"},
      {"measurement": "Ki", "setting": "[14]; estimated from DTG data in PC12 cells", "result": 44700, "unit": "nM"},
      {"measurement": "Ki", "setting": "[14]; estimated from PPP data in PC12 cells", "result": 15000, "unit": "nM"},
      {"measurement": "Ki", "setting": "[15]", "result": 16.1, "unit": "nM"},
      {"measurement": "IC50", "setting": "[1]; against 1-2 nM [³H] PPP", "result": 163, "unit": "nM"},
      {"measurement": "displacement of [³H] DTG or [³H] PPP", "setting": "[2]; 5 μM dextrallorphan", "result": "less than 30%"}
    ]}
  ]
}
